Test results from article PMC5434028, “Structure-based prediction and identification of 4-epimerization activity of phosphate sugars in class II aldolases” (Scientific Reports, 2017).

Molecular target: T1, RhaD (L-rhamnulose-1-phosphate aldolase) (Escherichia coli, UniProt P32169)
T1 sequence (P32169 1-274): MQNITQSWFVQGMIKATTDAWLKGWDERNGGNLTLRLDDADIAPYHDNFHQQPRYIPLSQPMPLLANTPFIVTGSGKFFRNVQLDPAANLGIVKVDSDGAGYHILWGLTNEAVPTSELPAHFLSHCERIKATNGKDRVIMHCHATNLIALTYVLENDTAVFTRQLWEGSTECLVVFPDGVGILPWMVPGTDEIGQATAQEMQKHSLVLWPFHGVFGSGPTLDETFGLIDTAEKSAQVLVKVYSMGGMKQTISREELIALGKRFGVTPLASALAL
Experiment: aldol condensation, dephosphorylation, Bio-LC of sorbose and psicose
Type: biochemical
Settings: 50 mM Tris-HCl pH 7.0, 50 °C

Row | Structure (SMILES) | aldol condensation, dephosphorylation, Bio-LC of sorbose and psicose (co-substrate DHAP) | aldol condensation, dephosphorylation, Bio-LC of sorbose and psicose (co-substrate GA)
1 | O=C[C@H](O)CO [GA] | S1P and P1P were condensed from DHAP and GA using RhaD | –
2 | O=C(CO)COP(=O)(O)O [dihydroxyacetone phosphate] | – | S1P and P1P were condensed from DHAP and GA using RhaD
